These are literature values, as cited in publication PMC9147442, “Design, Synthesis, and Evaluation of Linker-Optimised PSMA-Targeting Radioligands” (Pharmaceutics, 2022).

Details of the data set: method as in PMID 26985056. The conditions noted are these: radiotherapy.

In the case of [^177Lu]Lu-PSMA-617, the renal excretion is ~ 50 % IA.
